{"source": "paper PMC12781075", "about": "“Crosstalk between arachidonic acid metabolism and glycolysis drives integrated metabolic-inflammatory reprogramming in macrophages” (International Journal of Biological Sciences, 2026)", "key": {"PKM2(C49S)": {"molecular_target": "T1, PKM2(C49S) (Mus musculus, UniProt P52480, C49S)", "T1 construct": "gene Pkm; recombinant mouse PKM2 C49S (pET-28a, E. coli)", "T1 sequence (P52480 whole entry C49S)": "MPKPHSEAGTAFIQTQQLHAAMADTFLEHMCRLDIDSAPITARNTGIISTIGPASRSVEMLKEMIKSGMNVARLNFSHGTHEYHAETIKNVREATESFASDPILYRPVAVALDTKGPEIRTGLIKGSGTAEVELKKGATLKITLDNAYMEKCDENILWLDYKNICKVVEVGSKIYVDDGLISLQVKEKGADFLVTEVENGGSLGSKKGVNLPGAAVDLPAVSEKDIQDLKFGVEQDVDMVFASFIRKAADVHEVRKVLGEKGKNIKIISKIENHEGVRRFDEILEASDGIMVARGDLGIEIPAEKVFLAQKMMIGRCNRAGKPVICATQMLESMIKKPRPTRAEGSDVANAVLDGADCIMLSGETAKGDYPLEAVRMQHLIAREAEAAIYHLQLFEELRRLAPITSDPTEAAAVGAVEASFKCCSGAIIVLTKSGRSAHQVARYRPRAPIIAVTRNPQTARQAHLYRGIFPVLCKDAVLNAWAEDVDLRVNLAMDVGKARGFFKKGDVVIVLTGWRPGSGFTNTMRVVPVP", "assay": "ITC (much weaker than wild type)", "format": "binding"}, "[1]": {"molecular_target": "T2, pyruvate kinase M2 (PKM2) (Mus musculus, UniProt P52480)", "T2 construct": "gene Pkm; recombinant mouse PKM2 (pET-28a, E. coli)", "T2 sequence (P52480 whole entry)": "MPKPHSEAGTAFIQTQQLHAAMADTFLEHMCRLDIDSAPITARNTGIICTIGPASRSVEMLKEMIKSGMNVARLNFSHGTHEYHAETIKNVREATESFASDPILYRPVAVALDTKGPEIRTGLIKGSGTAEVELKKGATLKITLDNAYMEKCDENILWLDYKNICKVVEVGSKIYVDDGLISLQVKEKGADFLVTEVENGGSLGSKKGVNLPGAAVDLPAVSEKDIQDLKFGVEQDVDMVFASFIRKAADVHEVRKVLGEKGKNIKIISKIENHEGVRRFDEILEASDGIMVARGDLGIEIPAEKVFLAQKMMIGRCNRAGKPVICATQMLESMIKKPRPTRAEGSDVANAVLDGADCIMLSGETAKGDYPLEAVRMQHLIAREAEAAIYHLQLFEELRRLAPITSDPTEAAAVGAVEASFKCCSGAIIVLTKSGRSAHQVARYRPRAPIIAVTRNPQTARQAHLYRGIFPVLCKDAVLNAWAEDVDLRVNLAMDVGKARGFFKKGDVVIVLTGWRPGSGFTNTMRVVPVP", "assay": "ITC; LC/MS/MS peptide mapping of the adduct; CETSA and DARTS in lysates", "format": "binding"}}, "note": "pKd: −log10 of the molar value."}
{"smiles": "CCCCCC(=O)/C=C/[C@@H]1[C@@H](C/C=C\\CCCC(=O)O)[C@@H](O)C[C@H]1O", "note": "[15-keto-PGF2α]", "values": [{"measurement": "pKd", "setting": "PKM2(C49S)", "result": 4.42}, {"measurement": "pKd", "setting": "[1]", "result": 6.04}]}
